# Measured values as given in ChEMBL document CHEMBL5608163, “Structure modification of anoplin for fighting resistant bacteria” (Eur J Med Chem, 2024).
# Bridge positions count the residues as written; N and C are the ends. Square brackets hold non-standard residues; d marks the D form. Peptide text beside a SMILES is read from it. I, II: the chains in the order shown. * marks the point of attachment. ξ: configuration not given here. Pentadecanoyl = CCCCCCCCCCCCCCC(=O)*; Tridecanoyl = CCCCCCCCCCCCC(=O)*; NMeL = CN[C@@H](CC(C)C)C(=O)O; Decanoyl = CCCCCCCCCC(=O)*; ξK = NCCCCC(N)C(=O)O; Butyryl = CCCC(=O)*
# Experiments:
# [1] = Hemolytic activity in human RBC assessed as hemolysis measured after 24 hrs; type: toxicity, cell-based, Erythrocyte; settings: red blood cells
# Staphylococcus aureus [2] = assay: Antibacterial activity against methicillin-resistant Staphylococcus aureus ATCC 33591 assessed as reduction in bacterial growth incubated for 18 hrs by agar dilution method; type: functional
# Enterococcus faecium = assay: Antibacterial activity against vancomycin resistant Enterococcus faecium ATCC 700221 assessed as inhibition of bacterial growth incubated for 48 hrs by CLSI-based broth microdilution assay; type: functional
# Klebsiella pneumoniae [3] = assay: Antimicrobial activity against Klebsiella pneumoniae ATCC 700603 assessed as reduction in microbial growth incubated for 18 hrs by Mueller-Hinton Broth based microdilution assay; type: functional
# Bacillus subtilis [4] = assay: Antimicrobial activity against Bacillus subtilis ATCC 23857 assessed as reduction in microbial growth incubated for 18 hrs by Mueller-Hinton Broth based microdilution assay; type: functional
# Escherichia coli [5] = assay: Antibacterial activity against Escherichia coli ATCC 25922 assessed as reduction in bacterial growth incubated for 18 hrs by Mueller-Hinton Broth based microdilution assay; type: functional
# Pseudomonas aeruginosa [6] = assay: Antimicrobial activity against Pseudomonas aeruginosa ATCC 27853 assessed as reduction in microbial growth incubated for 18 hrs by Mueller-Hinton Broth based microdilution assay; type: functional
# Staphylococcus aureus [7] = assay: Antibacterial activity against Staphylococcus aureus ATCC 25923 assessed as reduction in bacterial growth incubated for 18 hrs by Mueller-Hinton Broth based microdilution assay; type: functional
# Staphylococcus aureus [8] = assay: Antibacterial activity against Staphylococcus aureus ATCC 25923 assessed as reduction in bacterial cell growth measured for 18 hrs by Mueller-Hinton broth based two-fold serial dilution method; type: functional
# Bacillus subtilis [9] = assay: Antibacterial activity against Bacillus subtilis ATCC 23857 assessed as reduction in bacterial cell growth measured for 18 hrs by Mueller-Hinton broth based two-fold serial dilution method; type: functional
# Escherichia coli [10] = assay: Antibacterial activity against Escherichia coli ATCC 25922 assessed as reduction in bacterial cell growth measured for 18 hrs by Mueller-Hinton broth based two-fold serial dilution method; type: functional
# Pseudomonas aeruginosa [11] = assay: Antibacterial activity against Pseudomonas aeruginosa ATCC 27853 assessed as reduction in bacterial cell growth measured for 18 hrs by Mueller-Hinton broth based two-fold serial dilution method; type: functional
# Klebsiella pneumoniae [12] = assay: Antibacterial activity against Klebsiella pneumoniae ATCC 700603 assessed as reduction in bacterial cell growth measured for 18 hrs by Mueller-Hinton broth based two-fold serial dilution method; type: functional
# Escherichia coli [13] = assay: Antibacterial activity against Escherichia coli ATCC 25922 assessed as reduction in bacterial cell growth incubated for 16 to 24 hrs by CLSI-protocol based Mueller-Hinton Broth micro-dilution method; type: functional; settings: time 16-24 hrs
# Pseudomonas aeruginosa [14] = assay: Antibacterial activity against Pseudomonas aeruginosa ATCC 27853 assessed as reduction in bacterial cell growth incubated for 16 to 24 hrs by CLSI-protocol based Mueller-Hinton Broth micro-dilution method; type: functional; settings: time 16-24 hrs
# Klebsiella pneumoniae [15] = assay: Antibacterial activity against Klebsiella pneumoniae ATCC 700603 assessed as reduction in bacterial cell growth incubated for 16 to 24 hrs by CLSI-protocol based Mueller-Hinton Broth micro-dilution method; type: functional; settings: time 16-24 hrs
# Bacillus subtilis [16] = assay: Antibacterial activity against Bacillus subtilis ATCC 23857 assessed as reduction in bacterial cell growth incubated for 16 to 24 hrs by CLSI-protocol based Mueller-Hinton Broth micro-dilution method; type: functional; settings: time 16-24 hrs
# Staphylococcus aureus [17] = assay: Antibacterial activity against Staphylococcus aureus ATCC 25923 assessed as reduction in bacterial cell growth incubated for 16 to 24 hrs by CLSI-protocol based Mueller-Hinton Broth micro-dilution method; type: functional; settings: time 16-24 hrs
# Erythrocyte = assay: Hemolytic activity in human erythrocyte incubated for 70 mins by absorbance based assay; type: toxicity, cell-based; settings: 1.167 h
Compound,MIC (Escherichia coli [13]),MIC (Pseudomonas aeruginosa [14]),MIC (Klebsiella pneumoniae [15]),MIC (Bacillus subtilis [16]),MIC (Staphylococcus aureus [17]),HC10 (Erythrocyte),other results
CC[C@H](C)[C@H](NC(=O)[C@H](CCCCN)NC(=O)[C@H](CCCCN)NC(=O)[C@H](CC(C)C)NC(=O)[C@H](CC(C)C)NC(=O)CN)C(=O)N[C@@H](CCCCN)C(=O)N[C@@H](Cc1c[nH]c2ccccc12)C(=O)N[C@@H](CC(C)C)C(=O)N[C@@H](CC(C)C)C(N)=O (H-GLLKKIKWLL-NH2),,,,,,,HC50 at 24 h [1]: 152 µM; MIC (Staphylococcus aureus [2]): 28.4 µM; MIC (Enterococcus faecium): 22.1 µM
CC[C@H](C)[C@H](NC(=O)[C@H](CCCNC(=N)N)NC(=O)[C@H](CCCCN)NC(=O)[C@H](CC(C)C)NC(=O)[C@H](CC(C)C)NC(=O)CN)C(=O)N[C@@H](CCCCN)C(=O)N[C@H](C(=O)N[C@@H](CC(C)C)C(=O)N(C)[C@@H](CC(C)C)C(N)=O)[C@@H](C)O (H-GLLKRIKTL[NMeL]-NH2),,,,,,,MIC (Klebsiella pneumoniae [3]): > 128 µM; MIC (Bacillus subtilis [4]): 64 µM; MIC (Escherichia coli [5]): > 128 µM; MIC (Pseudomonas aeruginosa [6]): 32 µM; MIC (Staphylococcus aureus [7]): > 128 µM
CCCCCCCCCCCCC(=O)NCC(=O)N[C@@H](CC(C)C)C(=O)N[C@@H](CC(C)C)C(=O)N[C@@H](CCCCN)C(=O)N[C@@H](CCCNC(=N)N)C(=O)N[C@H](C(=O)N[C@@H](CCCCN)C(=O)N[C@H](C(=O)N[C@@H](CC(C)C)C(=O)N[C@@H](CC(C)C)C(N)=O)[C@@H](C)O)[C@@H](C)CC (Tridecanoyl-GLLKRIKTLL-NH2),,,,,,,MIC (Staphylococcus aureus [8]): 8 µM; MIC (Bacillus subtilis [9]): 4 µM; MIC (Escherichia coli [10]): 8 µM; MIC (Pseudomonas aeruginosa [11]): 8 µM; MIC (Klebsiella pneumoniae [12]): 16 µM
CCCC(=O)NCC(=O)N[C@@H](CC(C)C)C(=O)N[C@@H](CC(C)C)C(=O)N[C@@H](CCCCN)C(=O)N[C@@H](CCCNC(=N)N)C(=O)N[C@H](C(=O)N[C@@H](CCCCN)C(=O)N[C@H](C(=O)N[C@@H](CC(C)C)C(=O)N[C@@H](CC(C)C)C(N)=O)[C@@H](C)O)[C@@H](C)CC (Butyryl-GLLKRIKTLL-NH2),256 µM,64 µM,256 µM,256 µM,256 µM,> 256 µM,
CCCCCCCCCCCCCCC(=O)NCC(=O)N[C@@H](CC(C)C)C(=O)N[C@@H](CC(C)C)C(=O)N[C@@H](CCCCN)C(=O)N[C@@H](CCCNC(=N)N)C(=O)N[C@H](C(=O)N[C@@H](CCCCN)C(=O)N[C@H](C(=O)N[C@@H](CC(C)C)C(=O)N[C@@H](CC(C)C)C(N)=O)[C@@H](C)O)[C@@H](C)CC (Pentadecanoyl-GLLKRIKTLL-NH2),,,,,,,MIC (Staphylococcus aureus [8]): 16 µM; MIC (Bacillus subtilis [9]): 8 µM; MIC (Escherichia coli [10]): 16 µM; MIC (Pseudomonas aeruginosa [11]): 16 µM; MIC (Klebsiella pneumoniae [12]): 32 µM
CCCCCCCCCC(=O)NCC(=O)N[C@@H](CC(C)C)C(=O)N[C@@H](CC(C)C)C(=O)N[C@@H](CCCCN)C(=O)N[C@@H](CCCNC(=N)N)C(=O)N[C@H](C(=O)N[C@@H](CCCCN)C(=O)N[C@H](C(=O)N[C@@H](CC(C)C)C(=O)N[C@@H](CC(C)C)C(=O)NCCCCC(NC(=O)[C@H](CC(C)C)NC(=O)[C@H](CC(C)C)NC(=O)[C@@H](NC(=O)[C@H](CCCCN)NC(=O)[C@@H](NC(=O)[C@H](CCCNC(=N)N)NC(=O)[C@H](CCCCN)NC(=O)[C@H](CC(C)C)NC(=O)[C@H](CC(C)C)NC(=O)CNC(=O)CCCCCCCCC)[C@@H](C)CC)[C@@H](C)O)C(N)=O)[C@@H](C)O)[C@@H](C)CC (stereo partly specified) (I: Decanoyl-GLLKRIKTLL[ξK]-NH2 / II: Decanoyl-GLLKRIKTLL; amide I:11-II:C),64 µM,256 µM,128 µM,256 µM,256 µM,26.56 µM,
CCCCCCCCCC(=O)NCC(=O)N[C@@H](CC(C)C)C(=O)N[C@@H](CC(C)C)C(=O)N[C@@H](CCCCN)C(=O)N[C@@H](CCCNC(=N)N)C(=O)N[C@H](C(=O)N[C@@H](CCCCN)C(=O)N[C@H](C(=O)N[C@@H](CC(C)C)C(=O)N[C@@H](CC(C)C)C(N)=O)[C@@H](C)O)[C@@H](C)CC (Decanoyl-GLLKRIKTLL-NH2),16 µM,8 µM,16 µM,8 µM,8 µM,16.36 µM,
